Paper PMC10178932, “The Antiangiogenic Effect and Ocular Pharmacology of Novel Modified Nonsteroidal Anti-Inflammatory Drugs in the Treatment of Oxygen-Induced Retinopathy” (Journal of Ocular Pharmacology and Therapeutics, 2023)
“Also recorded” adds a separate entry of the source. Each block holds one compound with its values, some of them ahead of it.

What was measured:
in vivo = details: mouse; for Cmax: Retinal Cmax; for Cmax / concentration at 1 h: adult mice; for concentration at 1 h: 1 h after OXT-328 3.5% eye drops (3 drops per eye)
Procedure: (§3) In these studies, we used adult mice, giving us more ocular tissue to work with, even though differences may exist between adult and neonatal tissues. […] The pupils were dilated with topical 1% tropicamide. At different time points after the last eye drop, the mice were euthanized and their corneas and retinas were collected quickly, immediately frozen in liquid nitrogen, and stored at −80°C until analyzed.
(§4) Briefly, each tissue sample was weighed and 100–300 μL ddH2O was added, depending on tissue weight, and homogenized.

[1] = test system: chicken chorioallantoic membrane (CAM); assay: Ex ovo chicken chorioallantoic membrane (CAM) angiogenesis assay; format: in vivo; details: 72 h
Procedure: Fertilized chick eggs were obtained from Charles River Labs (North Franklin, CT) and transferred to a specialized incubator with an automatic rotating device (Grumbach, Lyon Technologies, Inc., Brutgerate GmbH, Germany) for 3 days at 37°C and 70% humidity. After incubation, the eggs were cracked, and the embryo was transferred to a 100 × 25 mm sterilized Petri dish in a laminar flow hood. The eggs were incubated for 7 days and the sterilized filter paper disc containing water, 50 μM of OXT-328, or 50 μM of Q-922, or 100 μM of CL-717 was plated on the yolk sac membrane. The filter papers were treated with each reagent twice per day. Three days later, the angiogenic response was expressed as microvessel density in the CAM area determined under a microscope.[25]

[2] = test system: mice with oxygen-induced retinopathy (OIR); assay: Oxygen-induced retinopathy (OIR) mouse model, AVA and NVA in retinal flat mounts; format: in vivo, mouse (C57BL/6); details: for Avascular area (AVA), percent of total retinal area / Neovascular area (NVA), percent of total retinal area: mean ± SEM
Procedure: C57BL/6 mice with or without pregnancy (Subline J, specific pathogen-free class) were purchased from Jackson Laboratory, Bar Harbor, ME, and housed in room air (21% oxygen) at 25°C and a 12-h light/12-h dark cycle, with free access to food and water. Animal experiments were designed to provide intralitter control and equal size groups. We used randomization and blinded analysis. After delivery, pups from 1 litter were randomized into groups, and the number of mice in each group was n ≥ 6.
Pup litters together with their mothers were exposed to 75% oxygen from postnatal day 7 (P7) to P12 and returned to room air from P12 to P17.
For retinal flat mounts,[22] on P17, the eyeballs of the mice were enucleated and fixed in 4% paraformaldehyde for 0.5 h. Once the eyeball was fixed, its posterior segment was excised and fixed further in the same solution for 1 h, after which the retina was dissected and fixed again in 4% paraformaldehyde overnight at 4°C. Following this, the retina was washed sequentially as follows: thrice in phosphate-buffered saline (PBS) with 0.1% Tween-20 for 10 min each; in 50% methanol for 10 min; in 100% methanol for 10 min; and thrice in PBS with 0.1% Tween-20 for 10 min each. The retina was then blocked with 1% bovine serum albumin in 0.5% Triton X-100 in PBS for 30 min; incubated with Alexa Fluor 488 conjugated isolectin-B4 overnight at 4°C; washed 4 times in 0.1% Tween-20 in PBS; mounted on a glass slide; and covered with PermaFluorTM aqueous mounting medium.
Retinal flat mounts were imaged with an optical microscope at 10 × magnification, and the avascular area (AVA) and neovascular area (NVA) were delineated with ImageJ, a public domain Java image processing and analysis program. The software provides the user with the ability to determine total image surface area, AVA and NVA. Noncontinguous regions of interest such as AVA and NVA could be outlined and the areas could be summed. Results are expressed as a percent of the total surface area in dimensionless units. The person measuring the AVA and NVA was blinded as to the treatment received by that animal.
Table 1 summarizes the routes of administration of each study drug (OXT-328, Q-922, CL-717). From previous studies, we knew that our lead compound OXT-328 was subject to rapid hydrolysis by carboxylesterases.
(§1) We used a 10% solution of the water-soluble CL-717 in ddH2O with its pH adjusted to 5.0 ± 0.2 with NaOH, and its osmolality to 300 ± 20 mOsm/kg H2O with 18% NaCl. To formulate a 7.15% solution of Q-922 for topical delivery, 71.5 mg of Q-922 was dissolved in 800 μL of a 5% Tween 80/95% normal saline solution, pH 7.0. Additions of 150 μL of 15% solution of polyethylene glycol and 50 μL of 5% solution of Kolliphor EL were made to the Q-922 solution.
(§2) The pH was adjusted to 6.8 and the final volume was 1 mL. Q-922 similar to CL-717 was applied to the ocular surface as 5 μL eye drops when P12 mice were returned to room air. To prepare OXT-328 eye drops, vitamin E TPGS (D-α-tocopheryl polyethylene glycol 1000 succinate) and polyquaternium-1 were dissolved in purified water. OXT-328 (3.5%) was added to this solution, and stirred at 70°C for 30 min. This solution was then centrifuged at 13,200 rpm for 10 min and the supernatant was collected. Mannitol and boric acid were added to the harvested supernatant. After pH adjustment to 6.7 ± 0.2 using NaOH, purified water was added to the final volume. The resulting solution was sterilized by filtration through a 0.22 μm filter.
For intravitreal injections, Q-922 and OXT-328 were formulated as follows: vitamin E TPGS and polyquaternium-1 were dissolved in ddH2O and the respective drug was added, and the solution was stirred at 70°C for 30 min. This solution was then centrifuged at 13,200 rpm for 10 min and the supernatant was collected. Mannitol and boric acid were added to the supernatant to final concentrations of 3.18% (w/v) and 1.2% (w/v), respectively. […]

[3] = Uptake and biodistribution of CL-717 in explanted human eyes; format: in vitro ADME; details: explanted human eye, tissues at 1 h, 35.5°C
Procedure: Human eyes were obtained through the Lions Eye Bank for Long Island, Valley Stream, NY. […] The donor's identity was protected by de-identifying each sample. Following harvesting, they were transported on ice and delivered to the laboratory for study within 2 h after enucleation.
The anterior surface of explanted human eyes was immersed in CL-717 10% solution for 1 or 10 min, followed by washing with ddH2O. The eyes were placed in a Petri dish with their anterior part facing up, and the dish was covered and incubated for 1 h at 35.5°C, the normal in vivo eye temperature.

[4] = set-up: method as in PMID 21955327; details: systemically administered, rapidly hydrolyzed; cited from earlier work
[5] = Ocular pharmacokinetics and biodistribution in adult mice (HPLC tissue levels); details: for concentration at 1 h: cornea, topical
Procedure: as §3, §4

[6] = Safety: side effects during administration in mice; format: in vivo, mouse
Procedure: as §1, §2

[7] = 10% eye drops, 5 μL 5x/day, P12-P17
[8] = 10% eye drops, 5 μL 5x/day, P12-P17, P17
[9] = 50 μM on filter disc twice per day
[10] = single 1 μL intravitreal injection of 1% on P12, retinas on P17
[11] = adult mice, single 1 μL intravitreal injection of OXT-328 1%
[12] = read-out: Retinal Cmax, adult mice, single 1 μL intravitreal injection of OXT-328 1%, mean ± SEM
[13] = intraperitoneal 100 mg/kg once daily P7-P17
[14] = intraperitoneal 150 mg/kg once daily P7-P17
[15] = intraperitoneal 150 mg/kg once daily P7-P17, P17
[16] = single 1 μL intravitreal injection of 1% on P12, P17

SMILES: CCOP(=O)(NCCN1CCN(C(=O)CC2=C(C)/C(=C/c3ccc([S+](C)[O-])cc3)c3ccc(F)cc32)CC1)OCC (stereo not drawn) [CL-717, (Z)-diethyl 2-(4-(2-(5-fluoro-2-methyl-1-(4-(methylsulfinyl)benzylidene)-1H-inden-3-yl)acetyl)piperazin-1-yl)ethylphosphoramidate]
Tmax (in vivo; topical or ocular): 0.5 h | half-life (in vivo; topical or ocular): 4.7 h | Cmax (in vivo; topical or ocular, 3 eye drops of CL-717 10% on the ocular surface): 2.5 µM | Reduction of average new vessel formation versus control ([1]; 100 μM on filter disc twice per day): 34.2% | AVA reduction versus vehicle [2, 7]: 65% | NVA reduction versus vehicle [2, 7]: 63% | Avascular area (AVA), percent of total retinal area [2, 8]: 5.8% ± 0.8% | Neovascular area (NVA), percent of total retinal area [2, 8]: 8.3% ± 1.6% | CL-717 level in retina ([3]; ocular surface in 10% solution for 1 min): 12.6 µM | CL-717 level in retina ([3]; ocular surface in 10% solution for 10 min): 46.6 µM

SMILES: CCOP(=O)(OCC)OCCCCOC(=O)CC1=C(C)/C(=C/c2ccc([S+](C)[O-])cc2)c2ccc(F)cc21 (stereo not drawn) [OXT-328, phospho-sulindac]
half-life (in vivo): 4.8 h | concentration at 1 h (in vivo; Level in the cornea, mean ± SEM): 0 µM | concentration at 1 h (in vivo; Level in the retina, mean ± SEM): 0.4 ± 0.2 µM | Cmax (in vivo; single 1 μL intravitreal injection of OXT-328 1%, mean ± SEM): 516 ± 64 µM | Reduction of average new vessel formation versus control [1, 9]: 29.3% | Level in plasma and many tissues like the eye after systemic administration [4]: essentially undetectable | Effect on OIR ([2]; eye drops, data not shown): no effect | Avascular area (AVA), percent of total retinal area [2, 10]: 6.9% ± 2.4% | Neovascular area (NVA), percent of total retinal area [2, 10]: 5.6% ± 1.9% | Retinal Tmax [5, 11]: 2 h | Cmax [5, 12]: 516 ± 64.4 µM

SMILES: CCOP(=O)(NCCCCNC(=O)c1ccccc1SC/C=C(\C)CC/C=C(\C)CCC=C(C)C)OCC [Q-922, diethyl 4-(2-((2E,6E)-3,7,11-trimethyldodeca-2,6,10-trienylthio)benzamido)butylphosphoramidate]
Side effects on the ocular surface ([6]; Q-922 eye drops (7.15% formulation) applied to the ocular surface of mice): erythema and mild edema on the ocular surface; also recorded: erythema and edema restricted to the cornea and conjunctiva | Time for side effects to subside after treatment was discontinued ([6]; Q-922 eye drops applied to the ocular surface of mice): ≤ 48 h | Reduction of average new vessel formation versus control [1, 9]: 41.4% | Effect on AVA [2, 13]: no significant effect | Effect on NVA [2, 13]: no significant effect | AVA reduction versus vehicle [2, 14]: 28% | NVA reduction versus vehicle [2, 14]: 61% | Avascular area (AVA), percent of total retinal area [2, 15]: 8.4% ± 0.5% | Neovascular area (NVA), percent of total retinal area [2, 15]: 9.5% ± 2.6% | AVA reduction versus vehicle [2, 16]: 75% | NVA reduction versus vehicle [2, 16]: 52% | Avascular area (AVA), percent of total retinal area [2, 10]: 3.5% ± 0.5% | Neovascular area (NVA), percent of total retinal area [2, 10]: 5.2% ± 1.7%

Retinal Cmax ([5]; adult mice, single 1 μL intravitreal injection of OXT-328 1%, mean ± SEM): undetectable | concentration at 1 h ([5]; mouse): 3.1 ± 0.6 µM
SMILES: CSc1ccc(/C=C2/C(C)=C(CC(=O)O)c3cc(F)ccc32)cc1 [sulindac sulfide]

Level in the cornea ([5]; adult mice, 1 h after OXT-328 3.5% eye drops (3 drops per eye), mean ± SEM): 3.8 ± 0.7 µM | Retinal Cmax, fold lower than OXT-328 [5, 11]: > 30 fold | Cmax [5, 12]: 14.5 ± 2.4 µM
SMILES: CC1=C(CC(=O)O)c2cc(F)ccc2/C1=C\c1ccc(S(C)(=O)=O)cc1 [sulindac sulfone]

Retinal Cmax, fold lower than OXT-328 [5, 11]: > 30 fold | concentration at 1 h ([5]; mouse): 48.3 ± 7.9 µM | Cmax ([5]; mouse, retina, other: intravitreal injection): 7.1 ± 2.4 µM
SMILES: CC1=C(CC(=O)O)c2cc(F)ccc2/C1=C\c1ccc([S+](C)[O-])cc1 (stereo not drawn) [sulindac, reference compound]
